The term IC50 denotes the point on the concentration scale where inhibition reaches its midpoint.

We go through 27 molecules from patent US20040214832A1, “Piperazine derivative renin inhibitors” (priority 2003, published 2004).

The target in this assay is T1, human renin (Homo sapiens, UniProt P00797).
T1 sequence (P00797 67-406): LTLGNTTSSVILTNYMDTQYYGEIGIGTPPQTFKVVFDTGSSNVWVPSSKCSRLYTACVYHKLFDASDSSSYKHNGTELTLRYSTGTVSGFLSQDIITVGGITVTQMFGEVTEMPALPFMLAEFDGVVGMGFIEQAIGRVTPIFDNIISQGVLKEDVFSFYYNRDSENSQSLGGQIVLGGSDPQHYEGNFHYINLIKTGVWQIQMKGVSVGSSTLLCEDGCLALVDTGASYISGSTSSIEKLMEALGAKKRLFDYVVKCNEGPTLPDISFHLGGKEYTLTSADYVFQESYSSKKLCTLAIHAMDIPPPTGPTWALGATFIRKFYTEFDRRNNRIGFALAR
The assay can be described thus: Determination of renin IC50 by tGFP FRET assay. The conditions noted are these: Human recombinant renin, tandem GFP substrate 650 nM, 60 min incubation with compound, pH 7.4, 11-point curve. It counts as biochemical. The source says: Determination of Renin IC50 by tGFP FRET Assay
The tGFP FRET (fluorescence resonance energy transfer) assay utilizes a tandem GFP substrate (60 kDa, Discovery Technologies) containing nine amino acid recognition sequences for human renin flanked by two GFP proteins. The assay is used to determine the ability of a compound to act as an inhibitor of renin enzymatic activity by determination of that concentration of test compound that inhibits by 50% (IC50) the ability of renin to cleave the tandem GFP substrate. The IC50 values are determined over an 11-point curve at concentrations of 100 μM to 1 pM. Each compound concentration used to construct the curve was dependent on renin inhibitor potency. For example, subnanomolar IC50 values were determined over an 11-point curve at concentrations of 10 μM to 1 pM. All other IC50 values were determined over an 11-point curve at concentrations of 100 μM to 0.0065 μM. The concentrations were achieved by diluting a 9.1 nM stock of Human recombinant renin in the appropriate amount of buffer containing 50 mM HEPES, 1 mM EDTA, 1% PEG (8000 MW), 1 mM DTT, 0.1% BSA, pH 7.4 to achieve the final concentration of 50.4 μIU. The tGFP substrate stock solution of 43 μM was diluted with the appropriate amount of the above buffer to obtain the final concentration of 650 nM. In addition, 1 μl of the compound is diluted in dimethylsulfoxide (DMSO) to represent an […] log scale (5% final). The SR renin and compound are added to a 384 capacity plate by an automated robot (BIOMEK). The plate is incubated for 60 minutes; upon completion the tGFP substrate is added.
The IC50 is determined by monitoring the increase in […] at 432/432 nm excitation, 530/475 nm emission with a cutoff at 515/455 nm, in a fluorometric plate reader.

The structures appear in SMILES notation.

For the molecule `COc1ccc(COC[C@H]2CNCCN2c2ccc(OCCCOCc3cc(F)cc(F)c3)cc2)cc1` [Example 67, (2R)-1-{4-[3-(3,5-difluorobenzyloxy)-propoxy]-phenyl}-2-(4-methoxybenzyloxymethyl)-piperazine], the half-inhibitory concentration (IC50) was found to be 4340 nM.

In the case of `COc1ccccc1COCCCOc1ccc(N2C(=O)CNC[C@@H]2COCc2ccc(F)cc2C(F)(F)F)cc1` [Example 19, (6R)-6-(4-fluoro-2-trifluoromethylbenzyloxymethyl)-1-{4-[3-(2-methoxybenzyloxy)-propoxy]-phenyl}-piperazin-2-one], the IC50 is above 1000 nM.

Turning to `COCCCN1C(=O)CCc2ccc(OC[C@H]3CNCC(=O)N3c3ccc(OCCCOCc4ccccc4OC)cc3)cc21` [Example 111, 7-([2R]-1-{4-[3-(2-Methoxybenzyloxy)-propoxy]-phenyl}-6-oxopiperazin-2-ylmethoxy)-1-(3-methoxypropyl)-3,4-dihydro-1H-quinolin-2-one], the half-inhibitory concentration (IC50) came out at 3.91 nM.

With `COc1ccccc1COCCCOc1ccc(N2C(=O)CNC[C@@H]2COCc2ccc(C)cc2)cc1` [Example 7, (6R)-1-{4-[3-(2-methoxybenzyloxy)-propoxy]-phenyl}-6-(4-methylbenzyloxymethyl)-piperazin-2-one], the IC50 is 337 nM.

`COc1ccccc1CCOCCOc1ccc(N2CCNC[C@@H]2COc2ccc3ccccc3c2)cc1` [Example 104]: the IC50 was 1070 nM.

As for `COc1ccccc1COCCCOc1ccc(N2C(=O)CNC[C@@H]2COCc2ccccc2OC)cc1` [Example 10, (6R)-6-(2-methoxybenzyloxymethyl)-1-{4-[3-(2-methoxybenzyloxy)-propoxy]-phenyl}-piperazin-2-one], the IC50 was determined as 880 nM.

On to `COc1ccccc1COCCCOc1ccc(N2C(=O)CNC[C@@H]2COc2ccc(C(=O)N(C)C)cc2)cc1` [Example 95, 4-([2R]-1-{4-[3-(2-methoxybenzyloxy)-propoxy]-phenyl}-6-oxopiperazin-2-ylmethoxy)-N,N-dimethyl-benzamide], for which the IC50 is 4050 nM.

As for `CCC(=O)OCCN1CCCc2ccc(OC[C@H]3CNCC(=O)N3c3ccc(OCCCOCc4ccccc4OC)cc3)cc21` [Example 123, Propionic acid 2-[7-([2R]-1-{4-[3-(2-methoxybenzyloxy)-propoxy]-phenyl}-6-oxopiperazin-2-ylmethoxy)-3,4-dihydro-2H-quinolin-1-yl]-ethyl ester], the IC50 is 9 nM.

Take `COc1ccccc1COCCCOc1ccc(N2C(=O)CNC[C@@H]2COc2ccc3c(c2)N(CCNC(C)=O)CCC3)cc1` [Example 124, N-{2-[7-([2R]-1-{4-[3-(2-Methoxybenzyloxy)-propoxy]-phenyl}-6-oxopiperazin-2-ylmethoxy)-3,4-dihydro-2H-quinolin-1-yl]-ethyl}-acetamide]: the IC50 turned out to be 0.35 nM.

For the molecule `Fc1ccccc1COCCCOc1ccc(N2CCNC[C@@H]2COc2ccc3ccccc3c2)cc1` [Example 87, (2R)-1-{4-[3-(2-fluorobenzyloxy)-propoxy]-phenyl}-2-(naphthalen-2-yloxymethyl)-piperazine], the half-inhibitory concentration (IC50) was 597 nM.

As for `COc1ccccc1COCCCOc1ccc(N2C(=O)CNC[C@@H]2CNC(=O)c2ccc(Cl)cc2)cc1` [Example 83, 4-chloro-N-([2R]-1-{4-[3-(2-methoxybenzyloxy)-propoxy]-phenyl}-6-oxopiperazin-2-ylmethyl)-benzamide], the 50% inhibitory concentration (IC50) is above 1000 nM.

With `COc1ccccc1COCCCOc1ccc(N2C(=O)CNC[C@H]2COc2ccc3ccccc3c2)cc1` [Example 1, (6S)-1-{4-[3-(2-methoxybenzyloxy)-propoxy]-phenyl}-6-(naphthalen-2-yloxymethyl)-piperazin-2-one], the IC50 was 66 nM.

As to `COc1ccccc1CSCCCOc1ccc(N2CCNC[C@@H]2COc2ccc3ccccc3c2)cc1` [Example 102, (2R)-1-{4-[3-(2-methoxybenzylsulfanyl)-propoxy]-phenyl}-2-(naphthalene-2-yloxymethyl)-piperazine], the IC50 was above 1000 nM.

Take `COc1ccccc1COCCCOc1ccc(N2CCNC[C@@H]2COCc2cccc(-c3ccccc3)c2)cc1` [Example 91, (2R)-2-(biphenyl-3-ylmethoxymethyl)-1-{4-[3-(2-methoxybenzyloxy)-propoxy]-phenyl}-piperazine]: the half-maximal inhibitory concentration (IC50) is 1020 nM.

As for `COCCCN1CCCc2ccc(OC[C@H]3CNCC(=O)N3c3ccc(OCCCOCc4ccccc4OC)cc3)cc21` [Example 109, (6R)-1-{4-[3-(2-Methoxybenzyloxy)-propoxy]-phenyl}-6-[1-(3-methoxypropyl)-1,2,3,4-tetrahydroquinolin-7-yloxymethyl]-piperazin-2-one], the half-maximal inhibitory concentration (IC50) is 3.17 nM.

As to `CCOCCNC(=O)c1ccc(N2C(=O)CNC[C@@H]2COc2ccc3ccccc3c2)cc1` [Example 49, N-(2-ethoxyethyl)-4-[(2R)-2-(naphthalen-2-yloxymethyl)-6-oxopiperazin-1-yl]-benzamide], the IC50 is above 1000 nM.

For `COc1cccc(CCNC(=O)c2ccc(N3C(=O)CNC[C@@H]3COc3ccc4ccccc4c3)cc2)c1` [Example 50, N-[2-(3-methoxyphenyl)-ethyl]-4-[(2R)-2-(naphthalen-2-yloxymethyl)-6-oxopiperazin-1-yl]-benzamide], the IC50 was above 1000 nM.

As to `COc1ccccc1COCCCOc1ccc(N2C(=O)CNC[C@@H]2COC(=O)c2ccc3ccccc3c2)cc1` [Example 58, naphthalene-2-carboxylic acid (2R)-1-{4-[3-(2-methoxybenzyloxy)-propoxy]-phenyl}-6-oxopiperazin-2-yl methyl ester], the IC50 was above 1000 nM.

For the molecule `COc1ccccc1COCCCOc1ccc(N2C(=O)CNC[C@@H]2COCc2c(F)cccc2F)cc1` [Example 16, (6R)-6-(2,6-difluorobenzyloxymethyl)-1-{4-[3-(2-methoxybenzyloxy)-propoxy]-phenyl}-piperazin-2-one], the half-inhibitory concentration (IC50) is above 1000 nM.

Turning to `COc1ccccc1CSCCCOc1ccc(N2C(=O)CNC[C@@H]2COc2ccc3ccccc3c2)cc1` [Example 101, (6R)-1-{4-[3-(2-methoxybenzylsulfanyl)-propoxy]-phenyl}-6-(naphthalene-2-yloxymethyl)-piperazin-2-one], the IC50 is above 1000 nM.

For `COc1ccccc1COCCCOc1ccc(N2C(=O)CNC[C@@H]2COCc2ccncc2)cc1` [Example 25, (6R)-1-{4-[3-(2-methoxybenzyloxy)-propoxy]-phenyl}-6-(pyridin-4-ylmethoxymethyl)-piperazin-2-one], the IC50 is above 1000 nM.

Consider `COc1ccccc1COCCCOc1ccc(N2C(=O)CNC[C@@H]2COc2ccc3ccccc3c2)cc1C(=O)O` [Example 98, 2-[(5R)-3-(2-methoxybenzyloxy)-propoxy]-5-[2-(naphthalene-2-yloxymethyl)-6-oxopiperazin-1-yl]-benzoic acid], for which the IC50 was above 1000 nM.

On to `COc1ccccc1COCCCOc1ccc(N2C(=O)CNC[C@@H]2COc2ccc3cccnc3c2)cc1` [Example 41, (6R)-1-{4-[3-(2-methoxybenzyloxy)-propoxy]-phenyl}-6-(quinolin-7-yloxymethyl)-piperazin-2-one], for which the IC50 was 822 nM.

In the case of `COc1ccc(COC[C@H]2CNCCN2c2ccc(OCCCOCc3cccc(OC)c3)cc2)cc1` [Example 69, (2R)-2-(4-methoxybenzyloxymethyl)-1-{4-[3-(3-methoxybenzyloxy)-propoxy]-phenyl}-piperazine], the IC50 was found to be 15600 nM.

With `COc1ccccc1COCCCOc1ccc(N2C(=O)CNC[C@@H]2COc2ccc3c(c2)NCCC3)cc1` [Example 42, (6R)-1-{4-[3-(2-methoxybenzyloxy)-propoxy]-phenyl}-6-(1,2,3,4-tetrahydroquinolin-7-yloxymethyl)-piperazin-2-one], the IC50 came out at 124 nM.

As for `COc1ccccc1COCCCOc1ccc(N2C(=O)CNC[C@@H]2COc2ccccn2)cc1` [Example 80, (6R)-1-{4-[3-(2-methoxybenzyloxy)-propoxy]-phenyl}-6-(pyridin-2-yloxymethyl)-piperazin-2-one], the half-inhibitory concentration (IC50) was 20900 nM.

As to `COc1ccccc1COCCCOc1ccc(N2C(=O)CNC[C@@H]2COCc2ccc(Cl)c(Cl)c2)cc1` [Example 2, (6R)-6-(3,4-dichlorobenzyloxymethyl)-1-{4-[3-(2-methoxybenzyloxy)-propoxy]-phenyl}-piperazin-2-one], the IC50 was found to be 181 nM.
